Experimental data taken from patent US20050090651A1, “Polymeric compounds” (AdProTech Limited Cesterford Research Park, Little …, priority 2001, published 2005).
Where a SMILES comes first, the peptide text is derived from it. The star is where a group is joined. Myristoyl = CCCCCCCCCCCCCC(=O)*

Assay: Solubility of the lyophilised peptide
Format: physicochemical
Experimental: The crude peptide was desalted via gel filtration (Sephadex G10, 0.1% TFA in water) before purification by preparative C18 Vydac) high performance liquid chromatography (HPLC) using 0.1% trifluoroacetic acid and 0.1% trifluoroacetic acid/90% acetonitrile as gradient components. After lyophilisation, the peptide was a white amorphous powder, soluble to at least 10 mg/mL in both dimethylsulfoxide and water. Fast atom bombardment spectrometry gave a main peak at 2101 amu corresponding to the molecular ion of the peptide.

**Q.** For `CCCCCCCCCCCCCC(=O)NCC(=O)N[C@@H](CO)C(=O)N[C@@H](CO)C(=O)N[C@@H](CCCCN)C(=O)N[C@@H](CO)C(=O)N1CCC[C@H]1C(=O)N[C@@H](CO)C(=O)N[C@@H](CCCCN)C(=O)N[C@@H](CCCCN)C(=O)N[C@@H](CC(=O)O)C(=O)N[C@@H](CC(=O)O)C(=O)N[C@@H](CCCCN)C(=O)N[C@@H](CCCCN)C(=O)N1CCC[C@H]1C(=O)NCC(=O)N[C@@H](CC(=O)O)C(=O)N[C@@H](CCCCNC(=O)[C@@H](N)CS)C(N)=O` [MSWP2278, Myristoyl-Gly-Ser-Ser-Lys-Ser-Pro-Ser-Lys-Lys-Asp-Asp-Lys-Lys-Pro-Gly-Asp-(ε-amino-cysteinyl carboxamide)-Lys-NH2] (Myristoyl-GSSKSPSKKDDKKPGDK(Cys)-NH2), which solubility (in dimethylsulfoxide) is on record?
**A.** ≥ 10000 µg/mL

**Q.** What about the solubility (in water) of the same compound?
**A.** ≥ 10000 µg/mL
